The target in one assay is TRKA kinase (Homo sapiens (Human), UniProt P04629). In words: Assay of small molecular compounds for inhibiting the activity of TRKA kinase (LANCE TR-FRET). The class given is biochemical. Summed up:
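TRKA (supplied as 2 nM 2× solution) was pre-reacted with compounds for 5 min at room temperature before a 4× ULight-TK peptide/ATP mix (400 nM/40 μM) started the 60-min dark reaction at 1% DMSO. After stop and 60-min detection, TR-FRET was read.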

A further assay has as its system Ba/F3-AXL cells. In words: Assay for inhibiting the proliferation of Ba/F3-AXL cells (CCK-8). Type of assay: cell-based. Particulars: 72 hours of incubation, medium with 100 ng/mL hGas6, CCK-8. As to the method:
The values were then imported into Graphpad Prism 5 software for curve fitting, and IC50 was calculated.

Another assay addresses MER kinase (Homo sapiens (Human), UniProt Q12866). In words: Assay of small molecular compounds for inhibiting the activity of MER kinase (LANCE TR-FRET). Type of assay: biochemical. Summed up: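 LANCE TR-FRET readout of ULight-poly GT phosphorylation by MER kinase; compound final range 0.042-2500 nM, 3-fold steps, 5 min enzyme preincubation. Reaction 60 min at room temperature in the dark with substrate/ATP (4× at 200 nM/20 μM), 1% DMSO, then stopped and developed 60 min; IC50 by curve fit.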

The next assay deals with Ba/F3 LMNA-NTRK1 cells. In words: Assay for inhibiting the proliferation of Ba/F3 LMNA-NTRK1 cells (CCK-8). Type of assay: cell-based. Particulars: Mus musculus, BaF3. The procedure, abridged:
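Viability was read as absorbance at 450 nm following 1–2 h CCK-8 incubation at 37 °C, relative to control and blank wells.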

One may read the pIC50 as the negative decadic logarithm of the IC50, by convention in mol/L. Read a low pIC50 as a large IC50.

pIC50: −log10 of the molar value.

Chain of TRKA kinase (P04629 33-796): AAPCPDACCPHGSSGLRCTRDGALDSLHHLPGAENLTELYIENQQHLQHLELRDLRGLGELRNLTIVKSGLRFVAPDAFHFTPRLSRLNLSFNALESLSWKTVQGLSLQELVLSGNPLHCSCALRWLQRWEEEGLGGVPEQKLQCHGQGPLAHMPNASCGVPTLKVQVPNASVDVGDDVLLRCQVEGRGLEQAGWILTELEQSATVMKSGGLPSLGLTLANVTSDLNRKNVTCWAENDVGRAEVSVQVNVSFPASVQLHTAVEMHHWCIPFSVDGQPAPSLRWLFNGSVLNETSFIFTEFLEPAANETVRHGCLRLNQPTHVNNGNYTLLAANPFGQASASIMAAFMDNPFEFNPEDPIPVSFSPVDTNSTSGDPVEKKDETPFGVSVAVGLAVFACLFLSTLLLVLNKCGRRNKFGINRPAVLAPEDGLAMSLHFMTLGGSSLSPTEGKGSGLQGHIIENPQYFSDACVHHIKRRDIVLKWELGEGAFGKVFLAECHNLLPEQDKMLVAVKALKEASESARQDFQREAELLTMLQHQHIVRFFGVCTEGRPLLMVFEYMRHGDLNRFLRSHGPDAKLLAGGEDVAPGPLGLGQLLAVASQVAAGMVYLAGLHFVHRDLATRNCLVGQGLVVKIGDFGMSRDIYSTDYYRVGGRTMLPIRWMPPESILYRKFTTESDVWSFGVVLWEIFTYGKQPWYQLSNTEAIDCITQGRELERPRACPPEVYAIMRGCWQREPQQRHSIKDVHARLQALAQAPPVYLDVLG
Chain of MER kinase (Q12866 21-999): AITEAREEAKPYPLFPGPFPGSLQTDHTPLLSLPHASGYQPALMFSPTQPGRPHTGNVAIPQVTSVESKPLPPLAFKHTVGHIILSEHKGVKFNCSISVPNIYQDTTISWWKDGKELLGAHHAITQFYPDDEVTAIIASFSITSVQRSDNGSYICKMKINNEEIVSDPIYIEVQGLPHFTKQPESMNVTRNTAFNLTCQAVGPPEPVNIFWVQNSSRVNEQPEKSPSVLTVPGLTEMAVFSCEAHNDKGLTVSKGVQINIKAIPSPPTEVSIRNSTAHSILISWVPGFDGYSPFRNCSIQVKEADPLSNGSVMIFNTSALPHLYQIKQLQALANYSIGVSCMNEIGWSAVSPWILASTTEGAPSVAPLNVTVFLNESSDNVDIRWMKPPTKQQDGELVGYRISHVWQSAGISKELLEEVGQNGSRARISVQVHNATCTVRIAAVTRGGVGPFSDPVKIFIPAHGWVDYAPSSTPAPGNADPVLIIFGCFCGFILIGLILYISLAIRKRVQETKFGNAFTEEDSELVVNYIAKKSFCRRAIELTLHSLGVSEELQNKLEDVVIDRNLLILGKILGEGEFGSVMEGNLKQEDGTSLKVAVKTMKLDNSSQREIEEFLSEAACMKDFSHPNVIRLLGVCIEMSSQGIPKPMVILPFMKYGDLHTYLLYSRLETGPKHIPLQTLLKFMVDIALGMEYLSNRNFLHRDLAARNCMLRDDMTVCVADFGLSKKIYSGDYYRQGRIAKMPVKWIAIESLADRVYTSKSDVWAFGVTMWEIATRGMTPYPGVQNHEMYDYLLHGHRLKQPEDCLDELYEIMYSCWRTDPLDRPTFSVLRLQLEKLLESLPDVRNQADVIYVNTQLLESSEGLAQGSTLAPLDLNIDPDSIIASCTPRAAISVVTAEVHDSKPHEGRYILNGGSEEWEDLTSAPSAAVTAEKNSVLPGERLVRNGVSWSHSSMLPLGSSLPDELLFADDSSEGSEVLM

Turning to `CCOc1ccn(Cc2ccccc2)c(=O)c1C(=O)Nc1ccc(Oc2ccnc3cc(OC)c4c(c23)OCCO4)c(F)c1` [Example 117, N-(3-fluoro-4-((5-methoxy-2,3-dihydro-[1,4]dioxino[2,3-f]quinolin-10-yl)oxy)phenyl)-2-oxo-4-ethoxy-1-benzyl-1,2-dihydropyridin-3-carboxamide], the pIC50 is 6.30 to 7.30 on TRKA kinase, > 7.30 in the assay on Ba/F3-AXL cells and ≥ 7.30 at MER kinase.
In the same order, the values of `C=CCn1cc(C(=O)Nc2ccc(Oc3ccnc4cc(OC)c5c(c34)OCCO5)c(F)c2)c(=O)n(-c2ccc(F)cc2)c1=O` [Example 100, N-(3-fluoro-4-((5-methoxy-2,3-dihydro-[1,4]dioxino[2,3-f]quinolin-10-yl)oxy)phenyl)-3-(4-fluorophenyl)-1-allyl-2,4-dioxo-1,2,3,4-tetrahydropyrimidine-5-carboxamide] are 6.30 to 7.30, > 7.30 and ≥ 7.30.
Taken in the same sequence, the figures for `COc1cc2nccc(Oc3ccc(NC(=O)c4cn(CCF)c(=O)n(-c5ccc(F)cc5)c4=O)cc3F)c2c2c1OCCO2` [Example 101, N-(3-fluoro-4-((5-methoxy-2,3-dihydro-[1,4]dioxino[2,3-f]quinolin-10-yl)oxy)phenyl)-3-(4-fluorophenyl)-1-(2-fluoroethyl)-2,4-dioxo-1,2,3,4-tetrahydropyrimidine-5-carboxamide] were 6.30 to 7.30, > 7.30 and ≥ 7.30.
With `COCCOc1cc2nccc(Oc3cc(C)c(NC(=O)c4cn(C)c(=O)n(-c5ccc(F)cc5)c4=O)cc3F)c2c2c1OCCO2` [Example 179, N-(5-fluoro-4-((5-(2-methoxyethoxy)-2,3-dihydro-[1,4]dioxino[2,3-f]quinolin-10-yl)oxy)-2-methylphenyl)-3-(4-fluorophenyl)-1-methyl-2,4-dioxo-1,2,3,4-tetrahydropyrimidine-5-carboxamide], the pIC50 is > 7.30 against TRKA kinase, ≥ 7.30 on MER kinase and > 7.30 in the assay with Ba/F3 LMNA-NTRK1 cells.
Consider `COc1ccn(-c2ccc(F)cc2)c(=O)c1C(=O)Nc1ccc(Oc2ccnc3cc(OCC(C)(C)O)c4c(c23)OCCO4)cc1Cl` [Example 140, N-(2-chloro-4-((5-(2-hydroxy-2-methylpropoxy)-2,3-dihydro-[1,4]dioxino[2,3-f]quinolin-10-yl)oxy)phenyl)-1-(4-fluorophenyl)-4-methoxy-2-oxo-1,2-dihydropyridine-3-carboxamide], for which the values for the pIC50 on TRKA kinase, against MER kinase and with Ba/F3 LMNA-NTRK1 cells were > 7.30, ≥ 7.30 and > 7.30, respectively.
`O=C(Nc1ccc(Oc2ccnc3cc(OCCCN4CCCCC4)c4c(c23)OCCO4)cc1Cl)c1cccn(-c2ccc(F)cc2)c1=O` [Example 135, N-(2-chloro-4-((5-((3-piperidin-1-yl)propoxy)-2,3-dihydro-[1,4]dioxino[2,3-f]quinolin-10-yl)oxy)phenyl)-1-(4-fluorophenyl)-2-oxo-1,2-dihydropyridine-3-carboxamide]: the pIC50 against TRKA kinase was > 7.30; against MER kinase, ≥ 7.30; with Ba/F3 LMNA-NTRK1 cells, > 7.30.
With `COc1cc2nccc(Oc3cc(C)c(NC(=O)c4cn(C)c(=O)n(-c5ccc(F)cc5)c4=O)cc3F)c2c2c1OCCO2` [Example 177, N-(5-fluoro-4-((5-methoxy-2,3-dihydro-[1,4]dioxino[2,3-f]quinolin-10-yl)oxy)-2-methylphenyl)-3-(4-fluorophenyl)-1-methyl-2,4-dioxo-1,2,3,4-tetrahydropyrimidine-5-carboxamide], the pIC50 against TRKA kinase was > 7.30; on MER kinase, ≥ 7.30; with Ba/F3 LMNA-NTRK1 cells, > 7.30.
On to `CC(C)(O)COc1cc2nccc(Oc3ccc(NC(=O)c4cccn(-c5ccc(F)cc5)c4=O)c(Cl)c3)c2c2c1OCCO2` [Example 139, N-(2-chloro-4-((5-(2-hydroxy-2-methylpropoxy)-2,3-dihydro-[1,4]dioxino[2,3-f]quinolin-10-yl)oxy)phenyl)-1-(4-fluorophenyl)-2-oxo-1,2-dihydropyridine-3-carboxamide], for which the pIC50 on TRKA kinase was > 7.30; on MER kinase it was ≥ 7.30; with Ba/F3 LMNA-NTRK1 cells, > 7.30.
